Measured values from patent publication US20250197387A1, “BCL-XL DEGRADERS AND USES THEREOF” (Kymera Therapeutics, Inc., priority 2021, published 2025).

What was measured:
[1] = molecular target: T1, BCL-XL (Homo sapiens, UniProt Q07817); assay: BCL-XL degradation assay, western blot in MOLT-4 cells, 16 h; type: cell-based; settings: western blot, MOLT-4 cells, 16 h; for Dmax: read-out: Bcl-xL WB in MOLT-4 degradation 16 h: Average Dmax %; for DC50: read-out: Bcl-xL WB in MOLT-4 degradation 16 h: Mean external-Abs DC50
T1 construct: endogenous in cells; host or cells: MOLT-4
T1 sequence (Q07817 whole entry): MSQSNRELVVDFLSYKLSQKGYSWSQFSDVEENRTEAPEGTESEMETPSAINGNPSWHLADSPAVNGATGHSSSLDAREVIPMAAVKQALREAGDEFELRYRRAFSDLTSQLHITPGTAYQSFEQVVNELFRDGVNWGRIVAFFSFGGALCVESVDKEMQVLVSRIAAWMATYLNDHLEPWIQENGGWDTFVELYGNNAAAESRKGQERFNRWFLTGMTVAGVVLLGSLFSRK
Protocol: Compounds treatment: compounds were reconstituted in DMSO to make a stock concentration of 10 mM. MOLT-4 cells were maintained in RPMI-1640+10% FBS+1% Penicillin-Streptomycin. Cells were seeded into 6-well plates in 2 mL at the seeding density of 2e6 cells/mL. Compounds were added to the cells to a final concentration ranging 0.02-10 μM. After 16 hr incubation at 37° C., in a CO2 incubator, cells were collected in an Eppendorf tube and centrifuged at 200×g for 5 minutes, the supernatant removed and pellets washed with ice-cold PBS, centrifuged and supernatant removed again. Then. 50 μl of pre-chilled RIPA lysis buffer (Boston BioProducts. BP-115D) with protease and phosphatase inhibitors (Roche Applied Science. #04906837001 and #04693116001) was added into cell pellet to lyze the cells for 20 minutes under 4° C. Cell lysates were spin at 13000 rpm for 10 minutes. Supernatants were collected and protein concentration was measured by BCA assay kit (Solarbio. PC0020-500) following the manufacturer's protocol. Samples' final protein concentration was adjusted to 3.75 μg/uL with the RIPA lysis buffer based on BCA assay results and 4× loading buffer (Invitrogen. NP0007) was added into the samples and samples were heated to 85° C., for 10 min and then let cool at RT. Samples were centrifuged at 13000 rpm for 10 min and then loaded into a 26-well NuPAGER. Novex 4-12% Bis-Tris Midi Gel (Invitrogen. WG1403BOX) and run in NuPAGER MOPS SDS Running Buffer (Invitrogen. NP0001) for 180 minutes at 70 V into a XCell4 SureLock™ Midi-Cell Runner (Invitrogen. WR0100). Gel were transferred using the Invitrogen iBlot gel transfer device (Invitrogen. IB21001) and the nitrocellulose transfer stacks (Invitrogen, IB23001) with Program PO for 9 minutes. The membrane was then blocked with 5% bovin serum albumin for 1 hr at RT, then incubated with primary antibodies diluted in blocking buffer (LI-COR. 927-60001) and shake at 4° C., overnight. The primary antibodies were anti-BCL-xL antibody (CST. 2762:1:1000), anti-beta-actin (CST. 3700; 1:5000) and anti-GAPDH (CST. 97166:1:5000). Membranes were then washed three times with PBST for 15 minutes at RT. Secondary antibodies IR-Dye 680 CW Goat anti Mouse IgG (LI-COR. 926-68070) and IR-Dye 800 CW Goat anti Rabbit IgG (LI-COR. 926-32211) were diluted at a ratio of 1:10000 into PBST and membranes incubated for 1 hour at RT. Membranes were then washed three times with PBST for 15 minutes at RT. The western blot images were obtained using Odyssey Imaging System and quantified using Image Studio Lite Ver 5.2 software.
(§1) The letter codes for BCL-XL DC50 include: A (<0.01 μM); B (0.01-0.1 μM); C (>[…]); D (>0.5-1.0 μM); and E (>1.0 μM). The letter codes for Dmax % include A (>75%); B (50 to 75%); C (<50%).

[2] = molecular target: T1, BCL-XL; assay: Bcl-xL ELISA degradation in MOLT-4 cells, 6 h; type: cell-based; settings: for DC50: read-out: Bcl-xL ELISA in MOLT-4 degradation 6 h: Mean external-Abs DC50
Protocol: as §1

Structure (SMILES)	Dmax [1] [%]	DC50 [1] [nM]	Dmax [2] [%]	DC50 [2] [nM]
Cc1ncsc1-c1ccc([C@H](C)NC(=O)[C@@H]2C[C@@H](O)CN2C(=O)[C@@H](NC(=O)CCCCCCCCC(=O)N2CCN(CC[C@H](CSc3ccccc3)Nc3ccc(S(=O)(=O)NC(=O)c4ccc(N5CCN(CC6=C(c7ccc(Cl)cc7)CCC(C)(C)C6)CC5)cc4)cc3S(=O)(=O)C(F)(F)F)CC2)C(C)(C)C)cc1 [I-1, (2S,4R)-1-((S)-2-(10-(4-((R)-3-((4-(N-(4-(4-((4′-chloro-4,4-dimethyl-3,4,5,6-tetrahydro-[1,1′-biphenyl]-2-yl)methyl)piperazin-1-yl)benzoyl)sulfamoyl)-2-((trifluoromethyl)sulfonyl)phenyl)amino)-4-(phenylthio)butyl)piperazin-1-yl)-10-oxodecanamido)-3,3-dimethylbutanoyl)-4-hydroxy-N-((S)-1-(4-(4-methylthiazol-5-yl)phenyl)ethyl)pyrrolidine-2-carboxamide]	> 75	100 to 500		
Cc1ncsc1-c1ccc([C@H](C)NC(=O)[C@@H]2C[C@@H](O)CN2C(=O)[C@@H](NC(=O)CCCC(=O)N(C)CC#Cc2ccc(OCCCc3sc(N4CCc5cccc(C(=O)Nc6nc7ccccc7s6)c5C4)nc3C(=O)O)c(F)c2)C(C)(C)C)cc1 [I-2]	> 75	100 to 500		
Cc1ncsc1-c1ccc([C@H](C)NC(=O)[C@@H]2C[C@@H](O)CN2C(=O)[C@@H](NC(=O)CCCCCC(=O)N(C)CC#Cc2ccc(OCCCc3sc(N4CCc5cccc(C(=O)Nc6nc7ccccc7s6)c5C4)nc3C(=O)O)c(F)c2)C(C)(C)C)cc1 [I-3]	> 75	10 to 100		
Cc1ncsc1-c1ccc(CNC(=O)[C@@H]2C[C@@H](O)CN2C(=O)[C@@H](NC(=O)C2(F)CC2)C(C)(C)C)c(OCCCC(=O)N(C)CC#Cc2ccc(OCCCc3sc(N4CCc5cccc(C(=O)Nc6nc7ccccc7s6)c5C4)nc3C(=O)O)c(F)c2)c1 [I-6]	> 75	100 to 500		
Cc1ncsc1-c1ccc(CNC(=O)[C@@H]2C[C@@H](O)CN2C(=O)[C@@H](NC(=O)C2(F)CC2)C(C)(C)C)c(OCCCCCC(=O)N(C)CC#Cc2ccc(OCCCc3sc(N4CCc5cccc(C(=O)Nc6nc7ccccc7s6)c5C4)nc3C(=O)O)c(F)c2)c1 [I-7]	50 to 75	500 to 1000		
Cc1ncsc1-c1ccc([C@H](C)NC(=O)[C@@H]2C[C@@H](O)CN2C(=O)[C@@H](NC(=O)CCCC(=O)N(C)CCCc2cccc(F)c2OCCCc2sc(N3CCc4cccc(C(=O)Nc5nc6ccccc6s5)c4C3)nc2C(=O)O)C(C)(C)C)cc1 [I-9]	> 75	100 to 500		
Cc1ncsc1-c1ccc([C@H](C)NC(=O)[C@@H]2C[C@@H](O)CN2C(=O)[C@@H](NC(=O)CCCCCC(=O)N(C)CCCc2cccc(F)c2OCCCc2sc(N3CCc4cccc(C(=O)Nc5nc6ccccc6s5)c4C3)nc2C(=O)O)C(C)(C)C)cc1 [I-10]	> 75	100 to 500		
Cc1ncsc1-c1ccc([C@H](C)NC(=O)[C@@H]2C[C@@H](O)CN2C(=O)[C@@H](NC(=O)CCCCCCCC(=O)N(C)CCCc2cccc(F)c2OCCCc2sc(N3CCc4cccc(C(=O)Nc5nc6ccccc6s5)c4C3)nc2C(=O)O)C(C)(C)C)cc1 [I-11]	> 75	100 to 500		
Cc1ncsc1-c1ccc([C@H](C)NC(=O)[C@@H]2C[C@@H](O)CN2C(=O)[C@@H](NC(=O)C2CC3CCC(C2)N3c2ccc(S(=O)(=O)NC(=O)c3nc(N4CCc5cccc(C(=O)Nc6nc7ccccc7s6)c5C4)ccc3-c3cnn(CC4CCCCC4)c3C)cc2)C(C)(C)C)cc1 (some centres unmarked) [I-278]			> 75	10 to 100

Further lines, results first:

Dmax [1] [%]	DC50 [1] [nM]	Dmax [2] [%]	DC50 [2] [nM]	Structure (SMILES)
< 50	> 1000			Cc1ncsc1-c1ccc(CNC(=O)[C@@H]2C[C@@H](O)CN2C(=O)[C@@H](NC(=O)C2(F)CC2)C(C)(C)C)c(O[C@H]2CC[C@H](N3CCN(CC[C@H](CSc4ccccc4)Nc4ccc(S(=O)(=O)NC(=O)c5ccc(N6CCN(CC7=C(c8ccc(Cl)cc8)CCC(C)(C)C7)CC6)cc5)cc4S(=O)(=O)C(F)(F)F)CC3)CC2)c1 (single isomer, unassigned) [I-114]
< 50	> 1000			Cc1ncsc1-c1ccc(CNC(=O)[C@@H]2C[C@@H](O)CN2C(=O)[C@@H](NC(=O)C2(F)CC2)C(C)(C)C)c(O[C@H]2CC[C@@H](N3CCN(CC[C@H](CSc4ccccc4)Nc4ccc(S(=O)(=O)NC(=O)c5ccc(N6CCN(CC7=C(c8ccc(Cl)cc8)CCC(C)(C)C7)CC6)cc5)cc4S(=O)(=O)C(F)(F)F)CC3)CC2)c1 (single isomer, unassigned) [I-115]
50 to 75	500 to 1000			Cc1ncsc1-c1ccc(CNC(=O)[C@@H]2C[C@@H](O)CN2C(=O)[C@@H](NC(=O)C2(F)CC2)C(C)(C)C)c(OCCCC(=O)N(C)CCCc2cccc(F)c2OCCCc2sc(N3CCc4cccc(C(=O)Nc5nc6ccccc6s5)c4C3)nc2C(=O)O)c1 [I-12]
		> 75	< 10	Cc1cc([C@@H](C(=O)N2C[C@H](O)C[C@H]2C(=O)NCc2ccc(-c3scnc3C)cc2OCCCN2CCN(C(=O)c3nc(N4CCc5cccc(C(=O)Nc6nc7ccccc7s6)c5C4)ccc3-c3cnn(CC4CCCCC4)c3C)CC2)C(C)C)on1 [I-268]
		< 50	> 1000	Cc1ncsc1-c1ccc(CNC(=O)N2C[C@@H](O)CC2C(=O)[C@@H](NC(=O)C2(F)CC2)C(C)(C)C)c(O[C@H]2C[C@H](N3CCC(NC(=O)c4nc(N5CCc6cccc(C(=O)Nc7nc8ccccc8s7)c6C5)ccc4-c4cnn(CC5CCCCC5)c4C)CC3)C2)c1 (some centres unmarked) [I-269]
		< 50	> 1000	Cc1ncsc1-c1ccc(CNC(=O)[C@@H]2C[C@@H](O)CN2C(=O)[C@@H](NC(=O)C2(F)CC2)C(C)(C)C)c(N2CCC(N3CCC(NC(=O)c4nc(N5CCc6cccc(C(=O)Nc7nc8ccccc8s7)c6C5)ccc4-c4cnn(CC5CCCCC5)c4C)CC3)CC2)c1 [I-270]
		> 75	10 to 100	Cc1ncsc1-c1ccc([C@H](C)NC(=O)[C@@H]2C[C@@H](O)CN2C(=O)[C@@H](c2cc(OC3CN(CCCS(=O)(=O)NC(=O)c4nc(N5CCc6cccc(C(=O)Nc7nc8ccccc8s7)c6C5)ccc4-c4cnn(CC5CCCCC5)c4C)C3)no2)C(C)C)cc1 [I-271]
		> 75	< 10	Cc1cc(S(=O)(=O)NC(=O)c2nc(N3CCc4cccc(C(=O)Nc5nc6ccccc6s5)c4C3)ccc2-c2cnn(CC3CCCCC3)c2C)ccc1N1CCC(C(=O)N[C@H](C(=O)N2C[C@H](O)C[C@H]2C(=O)N[C@@H](C)c2ccc(-c3scnc3C)cc2)C(C)(C)C)CC1 [I-273]
		50 to 75	10 to 100	Cc1ncsc1-c1ccc([C@H](C)NC(=O)[C@@H]2C[C@@H](O)CN2C(=O)[C@@H](NC(=O)C2CCN(c3ccc(S(=O)(=O)NC(=O)c4nc(N5CCc6cccc(C(=O)Nc7nc8ccccc8s7)c6C5)ccc4-c4cnn(CC5CCCCC5)c4C)cc3Cl)CC2)C(C)(C)C)cc1 [I-274]
		> 75	10 to 100	Cc1ncsc1-c1ccc([C@H](C)NC(=O)[C@@H]2C[C@@H](O)CN2C(=O)[C@@H](NC(=O)C2CCN(c3ccc(S(=O)(=O)NC(=O)c4nc(N5CCc6cccc(C(=O)Nc7nc8ccccc8s7)c6C5)ccc4-c4cnn(CC5CCCCC5)c4C)c(Cl)c3)CC2)C(C)(C)C)cc1 [I-276]
		< 50		Cc1ncsc1-c1ccc(CNC(=O)[C@@H]2C[C@@H](O)CN2C(=O)[C@@H](NC(=O)C2(F)CC2)C(C)(C)C)c(OC2CCN(CC[C@H](CSc3ccccc3)Nc3ccc(S(=O)(=O)NC(=O)c4ccc(N5CCN(CC6=C(c7ccc(Cl)cc7)CCC(C)(C)C6)CC5)cc4)cc3S(=O)(=O)C(F)(F)F)CC2)c1 [I-281]
		50 to 75	100 to 500	Cc1cc(C(C(=O)N2C[C@H](O)C[C@H]2C(=O)NCc2ccc(-c3scnc3C)cc2OCCN2CCN(CC[C@H](CSc3ccccc3)Nc3ccc(S(=O)(=O)NC(=O)c4ccc(N5CCN(CC6=C(c7ccc(Cl)cc7)CCC(C)(C)C6)CC5)cc4)cc3S(=O)(=O)C(F)(F)F)CC2)C(C)C)on1 (some centres unmarked) [I-282]
